Reference: publication PMC9177597, “Structural basis of substrate recognition and translocation by human very long-chain fatty acid transporter ABCD1” (Nature Communications, 2022)
Substitutions are numbered along the chain they refer to.

Experiments:
Assay in all cases: substrate-stimulated ATPase assay (colorimetric Pi release)
Assay type in all cases: biochemical
Conditions in all cases: 5 μM C22:0-CoA, 2 mM ATP, 2 mM MgCl2, LMNG + CHS, pH 7.5, 37 °C
chABCD1 (chimeric ABCD1) [1] = target: T1, chABCD1 (chimeric ABCD1) (Homo sapiens, UniProt P33897, R401Q)
T1 construct: single polypeptide: N-terminal FLAG tag, PMP-4 residues 1-65 replacing human ABCD1 residues 1-63, then human ABCD1 64-745; HEK293F; homodimer; LMNG/CHS for assays, digitonin for cryo-EM; with PMP-4 (peroxisomal membrane protein related, ABCD1 homolog, Caenorhabditis elegans; N-terminal segment fused to the target chain)
T1 sequence (P33897 64-745 R401Q): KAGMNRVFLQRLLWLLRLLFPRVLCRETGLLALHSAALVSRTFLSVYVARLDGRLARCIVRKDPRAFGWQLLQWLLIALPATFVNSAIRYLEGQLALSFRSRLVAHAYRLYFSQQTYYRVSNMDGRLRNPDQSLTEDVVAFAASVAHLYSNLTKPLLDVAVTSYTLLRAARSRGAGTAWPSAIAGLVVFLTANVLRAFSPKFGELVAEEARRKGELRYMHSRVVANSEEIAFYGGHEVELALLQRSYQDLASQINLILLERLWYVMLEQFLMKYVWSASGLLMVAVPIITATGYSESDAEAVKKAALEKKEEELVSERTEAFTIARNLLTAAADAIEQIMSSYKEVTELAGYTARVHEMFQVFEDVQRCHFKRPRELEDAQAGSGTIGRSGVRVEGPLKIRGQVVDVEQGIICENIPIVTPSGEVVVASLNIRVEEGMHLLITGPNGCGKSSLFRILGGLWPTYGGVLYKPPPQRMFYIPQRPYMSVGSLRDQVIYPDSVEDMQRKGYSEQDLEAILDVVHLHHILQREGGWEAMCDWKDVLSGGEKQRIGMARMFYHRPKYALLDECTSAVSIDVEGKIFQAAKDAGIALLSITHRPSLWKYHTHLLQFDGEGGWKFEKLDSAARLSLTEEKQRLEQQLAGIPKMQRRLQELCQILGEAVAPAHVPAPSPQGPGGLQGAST

chABCD1 (chimeric ABCD1) [2] = target: T2, chABCD1 (chimeric ABCD1) (Homo sapiens, UniProt P33897, R152A)
T2 construct: single polypeptide: N-terminal FLAG tag, PMP-4 residues 1-65 replacing human ABCD1 residues 1-63, then human ABCD1 64-745; HEK293F; homodimer; LMNG/CHS for assays, digitonin for cryo-EM; with PMP-4 (peroxisomal membrane protein related, ABCD1 homolog, Caenorhabditis elegans; N-terminal segment fused to the target chain)
T2 sequence (P33897 64-745 R152A): T1 sequence (P33897 64-745 R401Q) with R89A, Q338R

chABCD1 (chimeric ABCD1) [3] = target: T3, chABCD1 (chimeric ABCD1) (Homo sapiens, UniProt P33897, Y337F)
T3 construct: single polypeptide: N-terminal FLAG tag, PMP-4 residues 1-65 replacing human ABCD1 residues 1-63, then human ABCD1 64-745; HEK293F; homodimer; LMNG/CHS for assays, digitonin for cryo-EM; with PMP-4 (peroxisomal membrane protein related, ABCD1 homolog, Caenorhabditis elegans; N-terminal segment fused to the target chain)
T3 sequence (P33897 64-745 Y337F): T1 sequence (P33897 64-745 R401Q) with Y274F, Q338R

chABCD1 (chimeric ABCD1) [4] = target: T4, chABCD1 (chimeric ABCD1) (Homo sapiens, UniProt P33897, K217A)
T4 construct: single polypeptide: N-terminal FLAG tag, PMP-4 residues 1-65 replacing human ABCD1 residues 1-63, then human ABCD1 64-745; HEK293F; homodimer; LMNG/CHS for assays, digitonin for cryo-EM; with PMP-4 (peroxisomal membrane protein related, ABCD1 homolog, Caenorhabditis elegans; N-terminal segment fused to the target chain)
T4 sequence (P33897 64-745 K217A): T1 sequence (P33897 64-745 R401Q) with K154A, Q338R

Structure (SMILES): CCCCCCCCCCCCCCCCCCCCCC(=O)SCCNC(=O)CCNC(=O)[C@H](O)C(C)(C)COP(=O)(O)OP(=O)(O)OC[C@H]1O[C@@H](n2cnc3c(N)ncnc32)[C@H](O)[C@@H]1OP(=O)(O)O [C22:0-CoA]
- relative ATPase activity (chABCD1 (chimeric ABCD1) [1]): displayed significantly decreased substrate-simulated ATPase activity, compared to the wild-type
- relative ATPase activity (chABCD1 (chimeric ABCD1) [2]): displayed significantly decreased substrate-simulated ATPase activity, compared to the wild-type
- relative ATPase activity (chABCD1 (chimeric ABCD1) [3]): displayed significantly decreased substrate-simulated ATPase activity, compared to the wild-type
- relative ATPase activity (chABCD1 (chimeric ABCD1) [4]): displayed significantly decreased substrate-simulated ATPase activity, compared to the wild-type
